Laboratory results from US20140051714A1, “Modulators Of The GPR119 Receptor And The Treatment Of Disorders Related Thereto” (ARENA PHARMACEUTICALS, INC., priority 2011, published 2014).

Key:
Male ZDF rats = assay: Oral glucose tolerance test (oGTT) in male ZDF rats; type: in vivo; conditions: for % Inhibition of Glucose Excursion: 60 min prior to glucose bolus (3 g/kg), AUC relative to vehicle control
Description: Male ZDF rats were fasted for 18 h and randomly grouped (n=6) to receive the GPR119 agonist Compound 1 at 3, 10, or 30 mg/kg, the control compound Januvia (3 mg/kg), or a combination of Compound 1 (3 mg/kg) and Januvia (3 mg/kg). The compounds were delivered orally via a gavage needle (p.o., volume 4 mL/kg) 60 min prior to glucose bolus (3 g/kg) (time=−60 min in FIG. 4), with a separate group receiving vehicle (20% hydroxypropyl-beta-cyclodextrin (HPCD)) as control. At time 0 min. a glucose bolus was administered. Levels of blood glucose were assessed using a glucometer (One-Touch Ultra™, LifeScan) at time −60 min (prior to compound administration), at 0 min (at time when glucose bolus was given), and at 30, 60, 90, and 120 min post glucose bolus. The plasma glucose excursion curve (FIG. 4) is shown.

GPR119 receptor = target: T1, GPR119 receptor (Homo sapiens, UniProt Q8TDV5); assay: HTRF cAMP detection assay in CHO-K1 cells stably expressing the GPR119 receptor; type: cell-based
T1 construct: expressed in transfected cells
T1 sequence (Q8TDV5 2-335): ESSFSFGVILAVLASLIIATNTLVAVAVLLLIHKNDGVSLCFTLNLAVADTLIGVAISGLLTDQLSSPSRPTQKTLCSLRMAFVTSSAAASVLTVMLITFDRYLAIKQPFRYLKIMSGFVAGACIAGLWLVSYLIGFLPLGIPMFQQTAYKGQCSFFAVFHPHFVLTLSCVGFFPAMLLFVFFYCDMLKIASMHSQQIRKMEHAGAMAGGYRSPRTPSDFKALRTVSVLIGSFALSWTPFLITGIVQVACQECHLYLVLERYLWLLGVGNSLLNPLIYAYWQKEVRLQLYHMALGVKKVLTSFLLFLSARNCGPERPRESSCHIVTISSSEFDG
Description: GPR119 agonist, Compound 1, was evaluated in an HTRF® cAMP detection assay (Cisbio, cAMP Dynamic 2 Assay Kit; #62AM4PEJ) according to the manufacturer's instructions using CHO-K1 cells stably expressing the GPR119 receptor. CHO-K1 cells were transduced with a lentiviral vector encoding the nucleotide sequence of GPR119 (NCBI mRNA and protein reference sequences: NM_178471.2 & NP_848566). The N-terminus of the GPR119 nucleotide sequence was modified to replace the first, methionine-coding, codon with a nucleotide sequence coding for a standard, nine amino acid, hemagglutinin tag. Following transduction, cells expressing the GPR119 receptor were isolated and a single clone was isolated following standard dilution-cloning procedures. On the day of the assay, cultured CHO-GPR119 cells were harvested, suspended in assay buffer and plated into 384-well assay plates (PerkinElmer® Proxiplate® #6008280) at a density of 2,000 cells per well. A cAMP standard curve was added to each plate. Compound 1 was dissolved in DMSO, serially diluted in DMSO and then diluted in assay buffer before addition to the cells. Compound 1 was evaluated in triplicate, using 10-point, 5-fold serial dilutions starting at 10 μM. […] Plates were then incubated at room temperature for 1 h prior to reading. Time-resolved fluorescence measurements were collected on PerkinElmer Envision™ or BMG Pherastar™ microplate readers. […]

Male SD rats = assay: Gastric emptying in male SD rats (stomach content 6 h post-dosing); type: in vivo; conditions: 3, 10, or 30 mg/kg orally
Description: Male SD rats were fasted for 18 h and randomly grouped (n=5). Fasted rats were allowed to access food for 30 min, and the amount of food consumed was recorded for each rat. At the end of the 30 min food intake, rats were put in cages without food and water, and dosed with Compound 1 at 3, 10, or 30 mg/kg, or vehicle control (20% HPCD) orally, or with exendin-4 (Ex-4) at 100 μg/kg i.p. Six hours post-dosing, rats were euthanized with CO2, and stomach content was determined.

Male 129SVE mice [1] = assay: Oral glucose tolerance test (oGTT) in male 129SVE mice; type: in vivo; conditions: for Plasma Glucose, Mean: n=6
Description: Male 129SVE mice (approximately 8 weeks old) were fasted for 18 h and randomly grouped (n=6) to receive a GPR119 agonist (Compound 1) at 3, 10, or 30 mg/kg body weight. The compound was delivered orally via a gavage needle (4 mL/kg) 30 min prior to glucose bolus (3 g/kg) (time=−30 min in FIG. 1), with a separate control group receiving vehicle (20% hydroxypropyl-beta-cyclodextrin (HPCD). At time 0 min, the glucose bolus was administered. Levels of blood glucose were assessed using a glucometer (One-Touch Ultra™, LifeScan) at time −30 min (prior to compound administration), at 0 min (at time when glucose bolus was given), and at 20, 40, 60, 120 min post glucose bolus. The plasma glucose level (Table A) and glucose excursion curve (FIG. 1) are shown. Glucose excursion reduction (area under the curve (AUC)) in compound treated animals relative to vehicle control is given in FIG. 2.

Male 129SVE mice [2] = assay: GIP release in male 129SVE mice (plasma total GIP, ELISA); type: in vivo; conditions: 3 or 30 mg/kg p.o.; blood sample after 45 min
Description: Male 129SVE mice (approximately 8 weeks old) were fasted for 18 h and randomly grouped (n=6) to receive a GPR119 agonist (Compound 1) at 3 or 30 mg/kg body weight. Compound 1 was delivered orally via a gavage needle (4 mL/kg), and after 45 min a blood sample was collected to determine plasma total GIP levels. A separate control group received vehicle (PET (80% PEG: 10% Ethanol: 10% Tween80™)). Plasma GIP levels were determined using a GIP (total) ELISA kit from Millipore.

## N[C@@H](CC(=O)N1CCn2c(nnc2C(F)(F)F)C1)Cc1cc(F)c(F)cc1F [Januvia, 3(R)-amino-1-[3-(trifluoromethyl)-5,6,7,8-tetrahydro[1,2,4]triazolo[4,3-a]pyrazin-7-yl]-4-(2,4,5-trifluorophenyl)butan-1-one phosphate, reference compound]
Male ZDF rats; 3 mg/kg p.o.
  % Inhibition of Glucose Excursion: 54.2%

## CCc1cnc(N2CCC(Oc3ncnc(Oc4ccc(S(C)(=O)=O)nc4C)c3F)CC2)nc1 [Compound 1, 4-(1-(5-ethylpyrimidin-2-yl)piperidin-4-yloxy)-5-fluoro-6-(2-methyl-6-(methylsulfonyl)pyridin-3-yloxy)pyrimidine]
GPR119 receptor
  Agonist character at GPR119 (HTRF assay): full agonist
Male SD rats
  Effect on gastric emptying: no significant effect on gastric emptying
Male 129SVE mice [1]; 3 mg/kg p.o., 20 min post glucose bolus
  Plasma Glucose, Mean: 282.8333 mg/dL
Male 129SVE mice [1]; 3 mg/kg p.o., 40 min post glucose bolus
  Plasma Glucose, Mean: 301.6667 mg/dL
Male 129SVE mice [1]; 3 mg/kg p.o., 60 min post glucose bolus
  Plasma Glucose, Mean: 270.6667 mg/dL
Male 129SVE mice [1]; 3 mg/kg p.o., 120 min post glucose bolus
  Plasma Glucose, Mean: 151.3333 mg/dL
Male 129SVE mice [1]; 3 mg/kg p.o., time 0 min relative to glucose bolus (3 g/kg)
  Plasma Glucose, Mean: 83.83 mg/dL
Male 129SVE mice [1]; 3 mg/kg p.o., time −30 min relative to glucose bolus (prior to compound administration)
  Plasma Glucose, Mean: 75 mg/dL
Male 129SVE mice [1]; 10 mg/kg p.o., 20 min post glucose bolus
  Plasma Glucose, Mean: 254.3333 mg/dL
Male 129SVE mice [1]; 10 mg/kg p.o., 40 min post glucose bolus
  Plasma Glucose, Mean: 276.8333 mg/dL
Male 129SVE mice [1]; 10 mg/kg p.o., 60 min post glucose bolus
  Plasma Glucose, Mean: 197.8333 mg/dL
Male 129SVE mice [1]; 10 mg/kg p.o., 120 min post glucose bolus
  Plasma Glucose, Mean: 134 mg/dL
Male 129SVE mice [1]; 10 mg/kg p.o., time 0 min relative to glucose bolus (3 g/kg)
  Plasma Glucose, Mean: 95.67 mg/dL
Male 129SVE mice [1]; 10 mg/kg p.o., time −30 min relative to glucose bolus (prior to compound administration)
  Plasma Glucose, Mean: 75.67 mg/dL
Male 129SVE mice [1]; 3, 10, or 30 mg/kg p.o., 30 min prior to glucose bolus (3 g/kg)
  Effect on blood glucose after challenge with glucose: lowered blood glucose
Male 129SVE mice [1]; dose of 10 mg/kg
  Effect on plasma glucose levels in oGTT: significantly reduced plasma glucose levels
Male 129SVE mice [2]
  Effect on GIP release (plasma total GIP): stimulates the release of GIP
Male ZDF rats; 3 mg/kg p.o.
  % Inhibition of Glucose Excursion: 19.1%
Male ZDF rats; 10 mg/kg p.o.
  % Inhibition of Glucose Excursion: 30.2%
Male ZDF rats; 30 mg/kg p.o.
  % Inhibition of Glucose Excursion: 60.7%
Male ZDF rats; diabetic ZDF rats, 3, 10, or 30 mg/kg p.o.
  Effect on blood glucose after a challenge with glucose: lowered blood glucose
